Experimental data: ChEMBL document CHEMBL1201862, “PubChem BioAssay data set” (2004)
Blank lines part the entries; values can stand above or below the compound they belong to. Calls of active or inactive are those of the source.

How the values were obtained:
[1] = molecular target: T1, Mannose-6-phosphate isomerase (Homo sapiens, UniProt P34949); test: PMI enzyme inhibitors, confirmation, biochemical, fluorescence intensity (AID 1535)
T1 sequence (P34949 whole entry): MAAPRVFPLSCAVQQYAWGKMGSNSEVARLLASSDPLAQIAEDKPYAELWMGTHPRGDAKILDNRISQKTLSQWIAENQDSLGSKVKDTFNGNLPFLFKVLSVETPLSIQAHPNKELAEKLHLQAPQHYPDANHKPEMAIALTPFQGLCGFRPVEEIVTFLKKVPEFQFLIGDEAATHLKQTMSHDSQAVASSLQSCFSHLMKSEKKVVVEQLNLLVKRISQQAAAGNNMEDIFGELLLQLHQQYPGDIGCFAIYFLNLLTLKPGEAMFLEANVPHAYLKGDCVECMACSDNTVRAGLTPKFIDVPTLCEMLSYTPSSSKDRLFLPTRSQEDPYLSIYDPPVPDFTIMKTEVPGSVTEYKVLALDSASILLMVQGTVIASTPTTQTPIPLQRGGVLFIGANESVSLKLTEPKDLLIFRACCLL

[2] = molecular target: Phosphomannomutase 2 (Homo sapiens, UniProt O15305); test: Counter screen SAR assay for PMM2 inhibitors via a fluorescence intensity assay. [Related pubchem assays (depositor defined):AID1545, AID1574]
Phosphomannomutase 2, sequence (O15305 whole entry): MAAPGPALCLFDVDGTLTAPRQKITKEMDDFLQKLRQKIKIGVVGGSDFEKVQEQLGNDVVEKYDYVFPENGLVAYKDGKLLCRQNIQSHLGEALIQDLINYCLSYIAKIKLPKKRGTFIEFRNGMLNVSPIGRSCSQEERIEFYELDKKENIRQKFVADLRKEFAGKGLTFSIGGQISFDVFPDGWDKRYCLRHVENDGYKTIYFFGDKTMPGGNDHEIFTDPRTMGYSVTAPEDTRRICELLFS

[3] = molecular target: Cytochrome P450 3A4 (Homo sapiens, UniProt P08684);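 also: CYP3A4 tested as one member of a cytochrome P450 panel screen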
Cytochrome P450 3A4, sequence (P08684 whole entry): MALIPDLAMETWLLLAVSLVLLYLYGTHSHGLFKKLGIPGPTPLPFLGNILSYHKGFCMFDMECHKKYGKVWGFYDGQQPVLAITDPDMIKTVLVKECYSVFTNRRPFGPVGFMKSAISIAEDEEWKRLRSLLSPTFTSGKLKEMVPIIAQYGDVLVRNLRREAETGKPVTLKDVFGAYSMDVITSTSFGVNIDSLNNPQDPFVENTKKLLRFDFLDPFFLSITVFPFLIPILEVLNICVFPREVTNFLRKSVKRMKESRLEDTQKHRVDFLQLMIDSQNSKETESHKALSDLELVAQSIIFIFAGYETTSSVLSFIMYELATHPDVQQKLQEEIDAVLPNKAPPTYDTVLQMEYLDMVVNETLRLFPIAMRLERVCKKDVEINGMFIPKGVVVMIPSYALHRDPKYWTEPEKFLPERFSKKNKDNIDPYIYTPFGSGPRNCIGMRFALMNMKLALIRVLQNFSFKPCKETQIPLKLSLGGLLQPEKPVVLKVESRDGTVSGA

[4] = molecular target: G-protein coupled receptor 55 (Homo sapiens, UniProt Q9Y2T6); test: GPR55 antagonists, SAR follow-up, counter-screen for GPR35 antagonist project, imaging, image-based (AID 2397); type: functional
G-protein coupled receptor 55, sequence (Q9Y2T6 whole entry, the tested form may be a part): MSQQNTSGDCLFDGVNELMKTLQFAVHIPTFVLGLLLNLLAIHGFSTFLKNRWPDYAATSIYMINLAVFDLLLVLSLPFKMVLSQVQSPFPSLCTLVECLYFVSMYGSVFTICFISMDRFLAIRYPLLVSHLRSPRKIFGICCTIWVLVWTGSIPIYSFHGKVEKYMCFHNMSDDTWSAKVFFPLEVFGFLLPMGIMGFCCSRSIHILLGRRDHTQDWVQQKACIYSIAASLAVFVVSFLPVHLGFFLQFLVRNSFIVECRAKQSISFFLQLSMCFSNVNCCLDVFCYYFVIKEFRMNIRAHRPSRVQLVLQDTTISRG

[5] = off-target signal loss in HeLa-CEM21 co-culture – HeLa F-luc CTL cells, cherry-picked, counter-screen for HIV-1 Env fusion inhibitor project, dose response (AID 652040); type: functional, cell-based;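 also: potency for signal decrease marking cytotoxic or nonspecific inhibition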
[6] = tested on: HEK293; test: NOD1 signaling inhibitors, primary screen, cell-based, luminescence, uHTS (AID 1578); type: functional; conditions: Homo sapiens
[7] = tested on: HEK293; test: cells; type: functional, cell-based; conditions: Homo sapiens
[8] = tested on: HEK293; test: cells; type: functional, cell-based; conditions: Homo sapiens; remark: listed apart in the source
[9] = tested on: HEK293; test: NOD2 signaling inhibitors in MDP-stimulated cells, cell-based, uHTS, luminescence (AID 2001); type: functional; conditions: Homo sapiens
[10] = molecular target: Peroxisome proliferator-activated receptor gamma/Nuclear receptor coactivator 1 (Homo sapiens, UniProt P37231); test: (§1) TR-FRET dose response biochemical High Throughput Screening assay for agonists of the steroid receptor coactivator 1 (SRC-1) recruitment by the peroxisome proliferator-activated receptor gamma (PPAR gamma): non-selective agonists. [Related pubchem assays (depositor defined):AID1300, AID1808, AID504735, AID631]; type: protein assay
Peroxisome proliferator-activated receptor gamma/Nuclear receptor coactivator 1, sequence (P37231 whole entry): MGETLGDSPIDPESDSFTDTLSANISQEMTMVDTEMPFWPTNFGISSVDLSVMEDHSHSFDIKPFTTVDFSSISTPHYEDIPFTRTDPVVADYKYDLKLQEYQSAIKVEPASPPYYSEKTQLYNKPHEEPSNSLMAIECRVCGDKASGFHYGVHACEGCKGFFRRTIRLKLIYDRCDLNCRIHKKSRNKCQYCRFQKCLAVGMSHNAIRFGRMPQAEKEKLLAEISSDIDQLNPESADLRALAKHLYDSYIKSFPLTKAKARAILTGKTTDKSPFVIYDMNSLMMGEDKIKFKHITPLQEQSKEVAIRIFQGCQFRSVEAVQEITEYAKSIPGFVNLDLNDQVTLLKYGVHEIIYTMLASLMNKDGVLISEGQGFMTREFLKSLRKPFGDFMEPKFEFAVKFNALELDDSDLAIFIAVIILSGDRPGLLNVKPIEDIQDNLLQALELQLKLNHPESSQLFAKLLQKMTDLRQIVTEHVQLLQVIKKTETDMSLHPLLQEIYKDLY
Peroxisome proliferator-activated receptor gamma/Nuclear receptor coactivator 1, sequence (Q15788 whole entry, further chain): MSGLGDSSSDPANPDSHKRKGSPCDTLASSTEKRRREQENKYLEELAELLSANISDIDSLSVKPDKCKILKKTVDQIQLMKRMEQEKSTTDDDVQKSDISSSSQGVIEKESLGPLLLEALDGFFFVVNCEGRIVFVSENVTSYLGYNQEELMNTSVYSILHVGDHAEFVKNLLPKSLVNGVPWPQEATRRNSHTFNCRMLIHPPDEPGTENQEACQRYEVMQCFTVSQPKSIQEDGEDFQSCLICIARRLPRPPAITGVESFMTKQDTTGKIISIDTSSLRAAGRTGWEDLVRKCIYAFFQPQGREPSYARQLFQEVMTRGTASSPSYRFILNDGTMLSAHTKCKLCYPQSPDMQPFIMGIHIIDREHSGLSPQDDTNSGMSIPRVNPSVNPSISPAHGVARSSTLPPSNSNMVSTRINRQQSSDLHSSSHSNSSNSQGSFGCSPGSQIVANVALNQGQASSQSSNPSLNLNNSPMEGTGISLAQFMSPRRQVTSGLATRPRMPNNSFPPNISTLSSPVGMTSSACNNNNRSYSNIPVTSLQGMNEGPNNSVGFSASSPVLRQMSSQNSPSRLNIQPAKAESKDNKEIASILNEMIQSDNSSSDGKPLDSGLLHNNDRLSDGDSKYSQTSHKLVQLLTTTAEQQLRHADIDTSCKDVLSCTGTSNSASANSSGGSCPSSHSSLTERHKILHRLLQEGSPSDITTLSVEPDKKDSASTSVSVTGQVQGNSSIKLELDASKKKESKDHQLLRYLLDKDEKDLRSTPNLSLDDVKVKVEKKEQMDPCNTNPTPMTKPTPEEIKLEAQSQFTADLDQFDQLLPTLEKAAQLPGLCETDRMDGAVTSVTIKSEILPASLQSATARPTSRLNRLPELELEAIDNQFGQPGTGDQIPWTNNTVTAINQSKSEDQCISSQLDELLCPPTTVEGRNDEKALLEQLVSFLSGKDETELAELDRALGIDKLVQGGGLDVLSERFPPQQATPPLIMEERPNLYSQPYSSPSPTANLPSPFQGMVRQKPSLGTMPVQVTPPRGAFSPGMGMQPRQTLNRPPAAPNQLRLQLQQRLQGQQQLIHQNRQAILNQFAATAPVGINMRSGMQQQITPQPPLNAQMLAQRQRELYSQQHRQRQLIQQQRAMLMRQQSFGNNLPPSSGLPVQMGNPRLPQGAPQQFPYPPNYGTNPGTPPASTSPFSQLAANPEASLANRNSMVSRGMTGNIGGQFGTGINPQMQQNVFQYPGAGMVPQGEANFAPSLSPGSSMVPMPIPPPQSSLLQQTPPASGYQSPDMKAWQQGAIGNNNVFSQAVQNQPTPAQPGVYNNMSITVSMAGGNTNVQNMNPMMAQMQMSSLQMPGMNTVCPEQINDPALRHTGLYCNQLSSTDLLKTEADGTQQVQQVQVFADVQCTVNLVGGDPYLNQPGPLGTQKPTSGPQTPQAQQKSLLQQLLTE

[11] = molecular target: Peroxisome proliferator-activated receptor gamma/Nuclear receptor coactivator 3 (Homo sapiens, UniProt P37231); test: as §1, with “3 (SRC-3)” for “1 (SRC-1)”, “assays: 1301 (Confirmation screen.), 1048 (Primary screen.)]” for “assays (depositor defined):AID1300, AID1808, AID504735, AID631]”; type: functional
Peroxisome proliferator-activated receptor gamma/Nuclear receptor coactivator 3, sequence (P37231 whole entry): as the sequence (P37231 whole entry) above
Peroxisome proliferator-activated receptor gamma/Nuclear receptor coactivator 3, sequence (Q9Y6Q9 whole entry, further chain): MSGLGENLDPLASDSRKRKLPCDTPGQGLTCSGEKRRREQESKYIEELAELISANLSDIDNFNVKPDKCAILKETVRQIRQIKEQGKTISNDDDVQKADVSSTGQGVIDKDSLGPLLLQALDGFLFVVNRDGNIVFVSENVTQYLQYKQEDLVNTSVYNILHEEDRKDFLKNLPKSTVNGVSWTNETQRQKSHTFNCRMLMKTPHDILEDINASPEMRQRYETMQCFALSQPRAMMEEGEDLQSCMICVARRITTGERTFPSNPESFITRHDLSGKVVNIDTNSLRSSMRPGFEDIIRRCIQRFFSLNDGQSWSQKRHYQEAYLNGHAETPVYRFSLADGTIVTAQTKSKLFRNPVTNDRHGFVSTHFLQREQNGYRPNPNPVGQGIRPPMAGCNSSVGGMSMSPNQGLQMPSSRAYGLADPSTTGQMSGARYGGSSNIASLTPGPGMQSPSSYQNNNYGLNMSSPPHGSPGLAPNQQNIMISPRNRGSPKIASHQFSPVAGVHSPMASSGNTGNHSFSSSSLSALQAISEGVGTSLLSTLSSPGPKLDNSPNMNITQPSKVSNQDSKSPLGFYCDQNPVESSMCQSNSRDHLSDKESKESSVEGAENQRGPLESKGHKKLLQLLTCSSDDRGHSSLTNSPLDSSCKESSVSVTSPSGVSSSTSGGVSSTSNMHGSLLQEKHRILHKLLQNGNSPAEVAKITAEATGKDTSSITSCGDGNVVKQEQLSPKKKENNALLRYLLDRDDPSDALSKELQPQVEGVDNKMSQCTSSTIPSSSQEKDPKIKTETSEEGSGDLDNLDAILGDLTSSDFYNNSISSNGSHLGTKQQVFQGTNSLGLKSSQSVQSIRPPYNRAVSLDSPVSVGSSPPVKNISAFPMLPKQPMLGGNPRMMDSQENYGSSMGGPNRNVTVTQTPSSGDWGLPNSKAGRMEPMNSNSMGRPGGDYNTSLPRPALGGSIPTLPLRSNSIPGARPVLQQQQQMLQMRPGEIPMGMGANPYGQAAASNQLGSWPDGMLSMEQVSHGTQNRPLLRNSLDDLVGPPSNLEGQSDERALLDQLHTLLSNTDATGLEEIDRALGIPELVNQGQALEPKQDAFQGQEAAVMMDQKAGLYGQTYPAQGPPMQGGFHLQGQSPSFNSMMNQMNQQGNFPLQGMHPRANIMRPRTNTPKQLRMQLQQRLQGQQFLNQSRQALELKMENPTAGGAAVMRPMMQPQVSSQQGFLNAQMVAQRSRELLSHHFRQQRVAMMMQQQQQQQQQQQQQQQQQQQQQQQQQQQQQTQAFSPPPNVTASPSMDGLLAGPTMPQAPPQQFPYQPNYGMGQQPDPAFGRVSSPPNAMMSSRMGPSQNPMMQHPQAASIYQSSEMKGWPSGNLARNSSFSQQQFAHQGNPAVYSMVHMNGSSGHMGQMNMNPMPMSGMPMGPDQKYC

[12] = molecular target: Peroxisome proliferator-activated receptor gamma/Nuclear receptor coactivator 2 (Homo sapiens, UniProt P37231); test: TR-FRET dose response biochemical High Throughput Screening assay for agonists of the steroid receptor coactivator 2 (SRC-2) recruitment by the peroxisome proliferator-activated receptor gamma (PPAR gamma): non-selective agonists. [Related pubchem assays: 1297, 1032 ]; type: functional

IC50 [1]: 51.1 µM (active)
IC50 [2]: > 100 µM (inactive)
SMILES: Clc1cccc(/N=c2\ssnc2Cl)c1

EC50 [10]: 359 µM (inactive)
EC50 [11]: > 79.4 µM (not active)
EC50 [12]: 60.1 µM (not active)
SMILES: CSc1oc(-c2ccccc2)nc1C(N)=O

Continued, compound first:

SMILES: CCc1nnc(NC(=O)CCC(=O)N2CCN(c3ccccn3)CC2)s1
AC50 [3]: inconclusive

SMILES: Cc1ccc(Cn2ncc3c(N4CCN(c5ccc(C)cc5)CC4)ncnc32)cc1
IC50 [4]: > 32 µM (inactive)
AC50 [5]: 6.95 µM (active)

SMILES: COc1cc(S(=O)(=O)NCc2ccncc2)ccc1Br
EC50 [6]: 3.02 µM (active)
IC50 [7]: 16.5 µM (active)
IC50 [8]: > 20 µM (inactive)
IC50 [9]: > 20 µM (inactive)

SMILES: Cc1nc(N2CCC(C)CC2)c2c(C)c(C(=O)Nc3ccc(C)c(F)c3)sc2n1
IC50 [4]: > 32 µM (inactive)
